Source: patent US20260001928A1 (CORTERIA PHARMACEUTICALS, priority 2022, published 2026)
pEC50: −log10 of the molar value. *1 amine or outer side, *2 acyl side, *3 side chain or, on linkers, in order; H or OH if unused. Where a SMILES comes first, the peptide text is derived from it. Side-chain parts run from the residue outwards. [ ]: non-standard residue; d: D form. The star is where a group is joined. C18 diacid = O=C(O)CCCCCCCCCCCCCCCCC(=O)*; γGlu = O=C(O)[C@H](CCC(=O)[*:2])N[*:1]; C14 diacid = O=C(O)CCCCCCCCCCCCC(=O)*; NMeI = CC[C@H](C)[C@H](NC)C(=O)O; αMeK = C[C@](N)(CCCCN)C(=O)O; Ac6c = NC1(C(=O)O)CCCCC1; Pentanoyl = CCCCC(=O)*; AEEA = NCCOCCOCC(=O)O; Aib = CC(C)(N)C(=O)O

Columns and labels:
human CRF2a receptor = biological target: T1, human CRF2a receptor (Homo sapiens, UniProt Q13324); assay: Activity at human CRF2a receptor, cAMP functional assay in TeloHEAC cells; type: cell-based; conditions: TeloHEAC cells stably expressing human CRF2a receptor, relative to urocortin 2 (100 nM = 100%)
T1 construct: expressed in transfected cells; host or cells: TeloHEAC cells
T1 sequence (Q13324 1-411): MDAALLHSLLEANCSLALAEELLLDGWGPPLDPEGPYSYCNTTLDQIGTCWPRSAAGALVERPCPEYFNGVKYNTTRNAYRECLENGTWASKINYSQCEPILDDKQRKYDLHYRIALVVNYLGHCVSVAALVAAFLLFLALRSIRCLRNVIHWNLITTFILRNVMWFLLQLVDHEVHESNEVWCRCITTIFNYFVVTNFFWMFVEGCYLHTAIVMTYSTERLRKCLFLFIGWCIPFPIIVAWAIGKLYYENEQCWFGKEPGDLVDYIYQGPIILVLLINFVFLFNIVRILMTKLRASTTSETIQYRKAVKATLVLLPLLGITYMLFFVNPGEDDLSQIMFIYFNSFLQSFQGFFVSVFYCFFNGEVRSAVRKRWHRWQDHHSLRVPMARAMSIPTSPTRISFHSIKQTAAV
How it was run: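 TeloHEAC cells stably expressing human CRF2a (10000 cells/well, suspended in HBSS/20 mM HEPES with 2 mM IBMX) were exposed to compounds for 30 min at 37 °C. cAMP was read as the 665/620 nm fluorescence ratio after 1 h at room temperature. EC50 was derived relative to 100 nM urocortin 2, set as 100%.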

CFR1R receptor = biological target: T2, CFR1R receptor (Homo sapiens, UniProt P34998); assay: Activity at anti-target CFR1R receptor, cAMP assay in CRF1R-overexpression CHO-K1 cells; type: cell-based; conditions: 100% = Sauvagine at 100 nM; for pEC50: cAMP
T2 construct: host or cells: CHO-K1 (clone 2)
T2 sequence (P34998 24-415): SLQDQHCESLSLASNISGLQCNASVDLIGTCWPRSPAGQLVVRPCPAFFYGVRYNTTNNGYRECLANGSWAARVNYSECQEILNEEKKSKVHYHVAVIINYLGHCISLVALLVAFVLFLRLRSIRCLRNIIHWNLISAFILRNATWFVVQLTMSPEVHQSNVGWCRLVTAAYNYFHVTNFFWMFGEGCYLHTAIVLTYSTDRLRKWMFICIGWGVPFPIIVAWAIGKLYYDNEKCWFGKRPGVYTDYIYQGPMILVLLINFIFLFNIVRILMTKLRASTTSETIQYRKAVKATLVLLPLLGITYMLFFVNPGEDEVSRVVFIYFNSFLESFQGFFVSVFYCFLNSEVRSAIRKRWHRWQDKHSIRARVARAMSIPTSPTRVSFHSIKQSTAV
How it was run: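 Grow clone 2 to near confluence at 37° C. under 5% CO2 in F12 (Hams) with 10% FBS and G418, harvest, and freeze in 10% DMSO. Thaw and plate at 4000 cells/well. Then proceed per the TeloHAEC method, normalising to Sauvagine 100 nM as maximum.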

Row | Compound | pEC50 (human CRF2a receptor) | Emax (% I) (CFR1R receptor) | pEC50 (CFR1R receptor)
1 | CC[C@H](C)[C@H](NC(C)=O)C(=O)N[C@H](C(=O)N[C@@H](CC(C)C)C(=O)N[C@@H](CO)C(=O)N[C@@H](CC(C)C)C(=O)N[C@@H](CC(=O)O)C(=O)N[C@@H](C(=O)N1CCC[C@H]1C(=O)N[C@H](C(=O)N[C@@H](CCCCN)C(=O)N[C@@H](CC(C)C)C(=O)N[C@@H](CCCCNC(=O)CC[C@H](NC(=O)CCCCCCCCCCCCCCCCC(=O)O)C(=O)O)C(=O)N[C@@H](CCCCN)C(=O)N[C@H](C(=O)N[C@@H](CC(C)C)C(=O)N[C@@H](CC(C)C)C(=O)N[C@@H](CCC(=O)O)C(=O)N[C@@H](CCC(N)=O)C(=O)N[C@@H](CCC(=O)O)C(=O)N[C@@H](CCCCN)C(=O)N[C@@H](CCC(N)=O)C(=O)N[C@@H](CCCCN)C(=O)N[C@@H](CCCCN)C(=O)N[C@@H](CCC(N)=O)C(=O)N[C@@H](CCCNC(=N)N)C(=O)N[C@@H](CCC(=O)O)C(=O)N[C@@H](CCC(N)=O)C(=O)N[C@@H](C)C(=O)N[C@@H](CCC(=O)O)C(=O)N[C@H](C(=O)N[C@@H](CC(N)=O)C(=O)NC1(C(=O)N[C@@H](CCC(N)=O)C(=O)N[C@H](C(=O)N[C@@H](CC(C)C)C(=O)N[C@@H](C)C(=O)N[C@@H](CCC(N)=O)C(=O)N[C@H](C(N)=O)C(C)C)[C@@H](C)CC)CCCCC1)[C@@H](C)O)[C@@H](C)CC)[C@@H](C)CC)C(C)C)C(C)C [compound 134] (Ac-IVLSLD[dV]PIKLK([γGlu-C18 diacid])KILLEQEKQKKQREQAETN[Ac6c]QILAQV-NH2) | 9.30 | 10 | < 6.60
2 | CC[C@H](C)[C@H](NC)C(=O)N[C@H](C(=O)N[C@@H](CC(C)C)C(=O)N[C@@H](CO)C(=O)N[C@@H](CC(C)C)C(=O)N[C@@H](CC(=O)O)C(=O)N[C@@H](C(=O)N1CCC[C@H]1C(=O)N[C@H](C(=O)N[C@@H](CCCCN)C(=O)N[C@@H](CC(C)C)C(=O)N[C@@H](CCCCNC(=O)CC[C@H](NC(=O)CCCCCCCCCCCCC(=O)O)C(=O)O)C(=O)N[C@@H](CCCCN)C(=O)N[C@H](C(=O)N[C@@H](CC(C)C)C(=O)N[C@@H](CC(C)C)C(=O)N[C@@H](CCC(=O)O)C(=O)N[C@@H](CCC(N)=O)C(=O)N[C@@H](CCC(=O)O)C(=O)N[C@@H](CCCCN)C(=O)N[C@@H](CCC(N)=O)C(=O)N[C@@H](CCCCN)C(=O)N[C@@H](C)C(=O)N[C@@H](CCC(N)=O)C(=O)N[C@@H](CCCNC(=N)N)C(=O)N[C@@H](CCC(=O)O)C(=O)N[C@@H](CCC(N)=O)C(=O)N[C@@H](C)C(=O)N[C@@H](CCC(=O)O)C(=O)N[C@H](C(=O)N[C@@H](CC(N)=O)C(=O)NC(C)(C)C(=O)N[C@@H](CCC(N)=O)C(=O)N[C@H](C(=O)N[C@@H](CC(C)C)C(=O)N[C@@H](C)C(=O)N[C@@H](CCC(N)=O)C(=O)N[C@H](C(N)=O)C(C)C)[C@@H](C)CC)[C@@H](C)O)[C@@H](C)CC)[C@@H](C)CC)C(C)C)C(C)C [compound 176] (H-[NMeI]VLSLD[dV]PIKLK([γGlu-C14 diacid])KILLEQEKQKAQREQAETN[Aib]QILAQV-NH2) | 9.00 | 8 | < 6.60
3 | CCCCC(=O)N[C@H](C(=O)N[C@@H](CC(C)C)C(=O)N[C@@H](CO)C(=O)N[C@@H](CC(C)C)C(=O)N[C@@H](CC(=O)O)C(=O)N[C@@H](C(=O)N1CCC[C@H]1C(=O)N[C@H](C(=O)N[C@@H](CCCCN)C(=O)N[C@@H](CC(C)C)C(=O)N[C@@H](CCCCNC(=O)COCCOCCNC(=O)COCCOCCNC(=O)CC[C@H](NC(=O)CCCCCCCCCCCCCCCCC(=O)O)C(=O)O)C(=O)N[C@@H](CCCCN)C(=O)N[C@H](C(=O)N[C@@H](CC(C)C)C(=O)N[C@@H](CC(C)C)C(=O)N[C@@H](CCC(=O)O)C(=O)N[C@@H](CCC(N)=O)C(=O)N[C@@H](CCC(=O)O)C(=O)N[C@@H](CCCCN)C(=O)N[C@@H](CCC(N)=O)C(=O)N[C@@H](CCCCN)C(=O)N[C@@H](CCCCN)C(=O)N[C@@H](CCC(N)=O)C(=O)N[C@@H](CCCNC(=N)N)C(=O)N[C@@H](CCC(=O)O)C(=O)N[C@@H](CCC(N)=O)C(=O)N[C@@H](C)C(=O)N[C@@H](CCC(=O)O)C(=O)N[C@H](C(=O)N[C@@H](CC(N)=O)C(=O)N[C@@H](C)C(=O)N[C@@H](CCC(N)=O)C(=O)N[C@H](C(=O)N[C@@H](CC(C)C)C(=O)N[C@@H](C)C(=O)N[C@@H](CCC(N)=O)C(=O)N[C@H](C(N)=O)C(C)C)[C@@H](C)CC)[C@@H](C)O)[C@@H](C)CC)[C@@H](C)CC)C(C)C)C(C)C [compound 122] (Pentanoyl-VLSLD[dV]PIKLK([AEEA-AEEA-γGlu-C18 diacid])KILLEQEKQKKQREQAETNAQILAQV-NH2) | 9.17 | 5 | < 6.60
4 | CCCCC(=O)N[C@H](C(=O)N[C@@H](CC(C)C)C(=O)N[C@@H](CO)C(=O)N[C@@H](CC(C)C)C(=O)N[C@@H](CC(=O)O)C(=O)N[C@@H](C(=O)N1CCC[C@H]1C(=O)N[C@H](C(=O)N[C@@H](CCCCN)C(=O)N[C@@H](CC(C)C)C(=O)N[C@@H](CCCCNC(=O)COCCOCCNC(=O)COCCOCCNC(=O)CC[C@H](NC(=O)CCCCCCCCCCCCCCCCC(=O)O)C(=O)O)C(=O)N[C@@H](CCCCN)C(=O)N[C@H](C(=O)N[C@@H](CC(C)C)C(=O)N[C@@H](CC(C)C)C(=O)N[C@@H](CCC(=O)O)C(=O)N[C@@H](CCC(N)=O)C(=O)N[C@@H](CCC(=O)O)C(=O)N[C@@H](CCCCN)C(=O)N[C@@H](CCC(N)=O)C(=O)N[C@@H](CCCCN)C(=O)NC(C)(C)C(=O)N[C@@H](CCC(N)=O)C(=O)N[C@@H](CCCNC(=N)N)C(=O)N[C@@H](CCC(=O)O)C(=O)N[C@@H](CCC(N)=O)C(=O)N[C@@H](C)C(=O)N[C@@H](CCC(=O)O)C(=O)N[C@H](C(=O)N[C@@H](CC(N)=O)C(=O)NC(C)(C)C(=O)N[C@@H](CCC(N)=O)C(=O)N[C@H](C(=O)N[C@@H](CC(C)C)C(=O)N[C@@H](C)C(=O)N[C@@H](CCC(N)=O)C(=O)N[C@H](C(N)=O)C(C)C)[C@@H](C)CC)[C@@H](C)O)[C@@H](C)CC)[C@@H](C)CC)C(C)C)C(C)C [compound 202] (Pentanoyl-VLSLD[dV]PIKLK([AEEA-AEEA-γGlu-C18 diacid])KILLEQEKQK[Aib]QREQAETN[Aib]QILAQV-NH2) | 8.76 | 8 | < 6.60
5 | CC[C@H](C)[C@H](NC(C)=O)C(=O)N[C@H](C(=O)N[C@@H](CC(C)C)C(=O)N[C@@H](CO)C(=O)N[C@@H](CC(C)C)C(=O)N[C@@H](CC(=O)O)C(=O)N[C@@H](C(=O)N1CCC[C@H]1C(=O)N[C@H](C(=O)N[C@@H](CCCCN)C(=O)N[C@@H](CC(C)C)C(=O)N[C@@H](CCCCNC(=O)COCCOCCNC(=O)COCCOCCNC(=O)CC[C@H](NC(=O)CCCCCCCCCCCCCCCCC(=O)O)C(=O)O)C(=O)N[C@@H](CCCCN)C(=O)N[C@H](C(=O)N[C@@H](CC(C)C)C(=O)N[C@@H](CC(C)C)C(=O)N[C@@H](CCC(=O)O)C(=O)N[C@@H](CCC(N)=O)C(=O)N[C@@H](CCC(=O)O)C(=O)N[C@@H](CCCCN)C(=O)N[C@@H](CCC(N)=O)C(=O)N[C@@H](CCCCN)C(=O)N[C@@H](CCCCN)C(=O)N[C@@H](CCC(N)=O)C(=O)N[C@@H](CCCNC(=N)N)C(=O)N[C@@H](CCC(=O)O)C(=O)N[C@@H](CCC(N)=O)C(=O)N[C@@H](C)C(=O)N[C@@H](CCC(=O)O)C(=O)N[C@H](C(=O)N[C@@H](CC(N)=O)C(=O)N[C@@](C)(CCCCN)C(=O)N[C@@H](CCC(N)=O)C(=O)N[C@H](C(=O)N[C@@H](CC(C)C)C(=O)N[C@@H](C)C(=O)N[C@@H](CCC(N)=O)C(=O)N[C@H](C(N)=O)C(C)C)[C@@H](C)CC)[C@@H](C)O)[C@@H](C)CC)[C@@H](C)CC)C(C)C)C(C)C [compound 106] (Ac-IVLSLD[dV]PIKLK([AEEA-AEEA-γGlu-C18 diacid])KILLEQEKQKKQREQAETN[αMeK]QILAQV-NH2) | 9.46 | 6 | < 6.60
